ChEMBL document CHEMBL1128399, “Annulated heterocyclic bioisosteres of norarecoline. Synthesis and molecular pharmacology at five recombinant human muscarinic acetylcholine receptors” (J Med Chem, 1995)

Assays:
[1] = target: T1, Muscarinic acetylcholine receptor M1 (Homo sapiens, UniProt P11229); experiment: In Vitro evaluation activity at the cloned Human Muscarinic acetylcholine receptor M1 determined by receptor selection and amplification technology (R-SAT)
T1 sequence (P11229 whole entry): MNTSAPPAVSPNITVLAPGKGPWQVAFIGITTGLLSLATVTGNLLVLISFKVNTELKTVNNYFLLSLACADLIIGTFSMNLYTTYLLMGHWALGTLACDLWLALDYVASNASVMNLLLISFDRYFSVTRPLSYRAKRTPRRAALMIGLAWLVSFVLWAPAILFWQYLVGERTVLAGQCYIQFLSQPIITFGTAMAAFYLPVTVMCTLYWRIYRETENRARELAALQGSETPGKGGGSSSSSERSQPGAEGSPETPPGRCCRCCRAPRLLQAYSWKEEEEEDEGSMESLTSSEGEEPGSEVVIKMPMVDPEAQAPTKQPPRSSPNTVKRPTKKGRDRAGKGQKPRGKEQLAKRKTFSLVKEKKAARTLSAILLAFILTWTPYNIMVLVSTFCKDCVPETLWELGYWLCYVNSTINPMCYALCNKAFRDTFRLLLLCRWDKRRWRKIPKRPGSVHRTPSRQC

[2] = tested on: Muscarinic acetylcholine receptors (Rattus norvegicus); experiment: Relative efficacy and M1 selectivity by agonist index.
[3] = target: T2, Muscarinic acetylcholine receptor M2 (Homo sapiens, UniProt P08172); experiment: In Vitro activity at the cloned Human Muscarinic acetylcholine receptor M2 determined by receptor selection and amplification technology (R-SAT).
T2 sequence (P08172 whole entry): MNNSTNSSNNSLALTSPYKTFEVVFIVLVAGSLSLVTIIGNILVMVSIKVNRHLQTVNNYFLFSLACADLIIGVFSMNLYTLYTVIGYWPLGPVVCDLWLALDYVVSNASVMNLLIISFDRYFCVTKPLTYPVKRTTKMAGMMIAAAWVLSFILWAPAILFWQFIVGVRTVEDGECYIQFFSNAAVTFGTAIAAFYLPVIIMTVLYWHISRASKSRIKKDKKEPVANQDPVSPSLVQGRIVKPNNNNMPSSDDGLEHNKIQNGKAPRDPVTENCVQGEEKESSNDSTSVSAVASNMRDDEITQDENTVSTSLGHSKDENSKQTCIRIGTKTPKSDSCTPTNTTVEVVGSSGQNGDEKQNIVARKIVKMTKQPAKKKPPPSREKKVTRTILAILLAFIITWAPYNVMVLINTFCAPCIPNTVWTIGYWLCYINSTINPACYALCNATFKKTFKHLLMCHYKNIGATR

[4] = target: Muscarinic acetylcholine receptor; experiment: In vitro binding affinity to the Muscarinic acetylcholine receptor by displacing [3H]QNB from the rat brain tissues
[5] = target: Muscarinic acetylcholine receptor; experiment: In vitro binding affinity to the Muscarinic acetylcholine receptor by displacing [3H]-QNB from the rat heart tissues; assay type: protein assay
[6] = target: Muscarinic acetylcholine receptor; experiment: In vitro binding affinity to the Muscarinic acetylcholine receptor by displacing [3H]PZ from the rat brain tissues
[7] = target: Muscarinic acetylcholine receptor; experiment: In vitro binding affinity to the Muscarinic acetylcholine receptor by displacing [3H]OXO-M from the rat brain tissues
[8] = target: T3, Muscarinic acetylcholine receptor M4 (Homo sapiens, UniProt P08173); experiment: In Vitro activity at the cloned Human Muscarinic acetylcholine receptor M4 determined by receptor selection and amplification technology (R-SAT)
T3 sequence (P08173 whole entry): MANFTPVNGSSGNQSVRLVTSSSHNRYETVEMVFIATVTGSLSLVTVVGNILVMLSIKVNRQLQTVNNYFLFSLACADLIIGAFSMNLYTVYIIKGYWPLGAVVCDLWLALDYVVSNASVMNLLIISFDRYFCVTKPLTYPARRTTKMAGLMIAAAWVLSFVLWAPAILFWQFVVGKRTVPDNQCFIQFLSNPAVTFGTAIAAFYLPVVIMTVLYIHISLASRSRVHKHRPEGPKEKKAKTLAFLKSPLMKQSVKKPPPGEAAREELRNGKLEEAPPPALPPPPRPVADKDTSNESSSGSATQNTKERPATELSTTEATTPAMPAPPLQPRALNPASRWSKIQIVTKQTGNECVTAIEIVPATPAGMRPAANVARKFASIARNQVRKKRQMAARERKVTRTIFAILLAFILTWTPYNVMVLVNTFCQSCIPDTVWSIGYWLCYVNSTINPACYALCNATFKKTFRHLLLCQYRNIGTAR

[9] = target: T4, Muscarinic acetylcholine receptor M5 (Homo sapiens, UniProt P08912); experiment: In Vitro activity at the cloned Human Muscarinic acetylcholine receptor M5 determined by receptor selection and amplification technology (R-SAT)
T4 sequence (P08912 whole entry): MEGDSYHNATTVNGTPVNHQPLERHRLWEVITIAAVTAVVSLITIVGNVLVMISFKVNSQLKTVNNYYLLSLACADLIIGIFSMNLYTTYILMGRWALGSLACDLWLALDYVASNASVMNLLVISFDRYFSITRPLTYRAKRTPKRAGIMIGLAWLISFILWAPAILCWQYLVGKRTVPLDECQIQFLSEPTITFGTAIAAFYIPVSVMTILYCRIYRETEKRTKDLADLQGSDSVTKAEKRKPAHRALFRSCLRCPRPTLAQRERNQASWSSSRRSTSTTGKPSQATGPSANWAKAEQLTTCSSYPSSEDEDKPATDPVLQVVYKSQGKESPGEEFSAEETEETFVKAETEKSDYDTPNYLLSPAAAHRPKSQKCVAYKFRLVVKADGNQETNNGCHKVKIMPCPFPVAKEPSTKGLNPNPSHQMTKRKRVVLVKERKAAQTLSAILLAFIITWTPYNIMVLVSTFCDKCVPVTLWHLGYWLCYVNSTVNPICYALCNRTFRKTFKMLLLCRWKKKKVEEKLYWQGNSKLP

[10] = target: Muscarinic acetylcholine receptor M3 (Homo sapiens, UniProt P20309); experiment: In Vitro activity at the cloned Human Muscarinic acetylcholine receptor M3 determined by receptor selection and amplification technology (R-SAT)
[11] = target: Muscarinic acetylcholine receptor; experiment: In vitro binding affinity to the Muscarinic acetylcholine receptor by displacing [3H]- Oxo-M from the rat brain tissues

Muscarinic acetylcholine receptor M3, sequence (P20309 whole entry): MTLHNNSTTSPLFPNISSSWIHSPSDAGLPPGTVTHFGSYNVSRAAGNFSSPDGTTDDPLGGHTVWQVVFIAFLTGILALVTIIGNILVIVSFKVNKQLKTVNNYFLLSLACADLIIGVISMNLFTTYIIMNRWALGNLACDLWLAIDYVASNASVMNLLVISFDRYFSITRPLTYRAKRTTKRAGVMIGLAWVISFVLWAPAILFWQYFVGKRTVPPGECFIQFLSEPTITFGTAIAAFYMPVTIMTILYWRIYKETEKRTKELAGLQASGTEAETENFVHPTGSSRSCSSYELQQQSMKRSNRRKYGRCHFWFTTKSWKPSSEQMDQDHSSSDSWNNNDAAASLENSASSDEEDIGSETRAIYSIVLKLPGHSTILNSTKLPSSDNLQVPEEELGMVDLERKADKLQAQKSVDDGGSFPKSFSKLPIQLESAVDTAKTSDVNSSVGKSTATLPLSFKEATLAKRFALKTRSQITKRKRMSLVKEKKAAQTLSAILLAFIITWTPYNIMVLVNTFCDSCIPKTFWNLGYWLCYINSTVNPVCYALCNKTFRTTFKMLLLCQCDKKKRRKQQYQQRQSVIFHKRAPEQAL

Row | SMILES | EC50 [1] [nM] | Agonist index [2] | EC50 [3] [nM] | IC50 [4] [nM] | IC50 [5] [nM] | IC50 [6] [nM] | IC50 [7] [nM] | EC50 [8] [nM] | EC50 [9] [nM] | EC50 [10] [nM] | IC50 [11] [nM]
1 | CCOc1noc2c1CNCCC2 | 95 | 25 | 41 | 530 | 140 | 18 | 3.4 | 67 | – | 500 | –
2 | C#CCOc1noc2c1CNCCC2 | 140 | 104 | 6.7 | 480 | 82 | 23 | 0.75 | 30 | 950 | 130 | –
3 | O=C1CCCN1CC#CCN1CCCC1 [OXOTREMORINE] | – | – | – | 2300 | 84 | 93 | – | – | – | – | 1.2

The next lines start with results.

Row | EC50 [1] [nM] | Agonist index [2] | EC50 [3] [nM] | IC50 [4] [nM] | IC50 [5] [nM] | IC50 [6] [nM] | IC50 [7] [nM] | EC50 [8] [nM] | EC50 [9] [nM] | EC50 [10] [nM] | SMILES | IC50 [11] [nM]
4 | 460 | 104 | 43 | 6400 | 350 | 390 | 10 | 240 | 4700 | 620 | COc1noc2c1CNCCC2 | –
5 | – | 5.4 | – | 370 | 360 | 13 | 11 | – | – | – | CC(C)Oc1noc2c1CNCCC2 | –
